# “Also recorded” adds a separate entry of the source.
# Tested on: mitochondria or chloroplast of Chlamydomonas reinhardtii
# Assay: Subcellular localization of Venus reporter by epifluorescence microscopy (manual targeting assignment)
# Type: cell-based
# Conditions: for targeting when combining cTP-N with mTP-C (^cP^m) / chloroplast targeting upon addition of cTP-C (P^c): bare name = K and R versions; for chloroplast targeting upon addition of cTP-C (P^c): C-terminal element of RCA1-cTP added to the named peptide, Figure 2 rows E and F
# Text: In a bid to keep peptidase recognition sites intact, C-terminal elements were designed to start 10 residues upstream of the cleavage site, even though this slightly truncates TP helices. Peptides carrying the 15-amino-acid cTP N-terminus (cTP-N) will be denoted ^cP. Similarly, peptides with C-terminal elements from RCA1-cTP (cTP-C) or CAG2-mTP (mTP-C) will be denoted P^c or P^m, respectively. Peptide variants are used to drive the subcellular localization of a Venus fluorescent reporter protein, which was assessed using fluorescence microscopy; in Figure 2, an executive overview of observed Venus localization is presented for all constructs. […] Here, we use automated image segmentation to validate our subcellular localization assessment (Supplemental Figure 2, Supplemental text). […] The reader will be asked to return to Figure 2 throughout, with Figures 3 and 4 providing selected micrographs as examples highlighting particular points of interest.
# Chlamydomonas TP sequences were amplified from genomic DNA extracted from strain T222+ (CC-5101). Templates for codon-optimized HA-RAMP, RP, and R→K modified TP sequences were obtained by gene synthesis (Eurofins Genomics). Correct assembly was verified by sequencing (Eurofins Genomics). Linear transformation cassettes were generated through restriction digestion with EcoRV (New England Biolabs).
# Constructs were transformed into wild-type strain T222+ (CC-5101) using a protocol described previously ([Onishi and Pringle, 2016]), except using 4 μl of DNA at 2 μg/μl.
# Strains with suspected mitochondrial targeting were treated with 0.1 μM MitoTracker Red CMXRos (Thermo Fisher Scientific) in growth medium for 30 min in the dark and washed with TAP prior to taking images.
# Legend for Fig. S3 – S20. Three independent transformant lines (Strains 1-3) are shown for each combination of modifications (A-L), represented by a cartoon and a shorthand description (cf. Fig.
# 2). Where a construct was interpreted as generating reporter localization in mitochondria or […]
# Epifluorescence microscopy images of typical cells for each strain are shown. MitoTracker fluorescence, false-coloured in cyan, indicates the position of mitochondria (although parts of the cell exterior are sometimes also stained). False-coloured yellow fluorescence from the Venus channel reports on the subcellular localization of the fluorescent reporter. Chlorophyll autofluorescence, shown in magenta, indicates the location of the chloroplast. Scale bars are 5µm. Brightness (Br.) was adjusted for clarity: fluorescence intensity values were restricted to the range shown for each channel by matching coloured rectangles. Intensity scales to 0 at the bottom of the panel, and to 65535 at the top.
# On the right-hand side, quantitative information associated with each construct is shown. Data was normalized such that averages range from 0 to 1 across all constructs (cf. Fig S2). Individual cell measurements may exceed this range; for clarity, the range shown here is limited to -0.5 to 1.5, with outliers that have more extreme values shown as lying beyond a dashed line. Strain 1 is plotted as circles, strain 2 as squares, and strain 3 as diamonds. Venus: Fluorescence plate reader data of transformants screened for this construct (Venus fluorescence, accounting for cell density using linear regression of OD750 and chlorophyll fluorescence trained on ‘no venus’ control transformants). Transformants that were not selected after screening are shown as small grey circles. A colour code ranging from white (low Venus fluorescence) to black (high Venus fluorescence) is used for strains 1-3 and the average thereof. Automated image quantification data: pyr/chl: Venus channel signal in the pyrenoid relative to in the chlorophyll region; mt/cell: Venus channel signal in mitochondria relative to the whole cell. Each point corresponds to a single cell.
# The colour code code is the same as that below distributions in Fig. S2, i.e. blue highlights the […]
# [1] = 15 N-terminal residues of RCA1-cTP added, no C-terminal element, Figure 2
# [2] = targeting of the Venus reporter fused to the peptide, expressed in Chlamydomonas reinhardtii, manual assignment from epifluorescence microscopy, full or partial
# [3] = peptide-Venus reporter construct expressed in Chlamydomonas reinhardtii, manual targeting assignment (Neither / Mitochondria / Chloroplast / Dual; partial = partial targeting)
# [4] = manual targeting assignment of the Venus reporter construct in Chlamydomonas: Neither / Mitochondria / Chloroplast / Dual, (partial) = partial targeting
sequence,measurement,setting,value
"GKIPVKAIKKAGAAIGKGLRAINIASTAHDVYSFFKPKHKKK [SIM, SI moricin, HA-RAMP antimicrobial peptide, reference compound]",chloroplast targeting upon sole addition of cTP-N (^cP),[1],at least partial chloroplast targeting; also recorded: generated chloroplast targeting
same,targeting when combining cTP-N with mTP-C (^cP^m),Figure 2,chloroplast targeting
"GLFSKFNKKKIKSGLIKIIKTAGKEAGLEALRTGIDVIGCKIKGEC [E1S, esculentin-1SEA, HA-RAMP antimicrobial peptide, reference compound]",targeting when combining cTP-N with mTP-C (^cP^m),Figure 2,chloroplast targeting
"GWIRDFGKRIERVGQHTRDATIQTIAVAQQAANVAATLKG [S1D, sarcotoxin-1D, HA-RAMP antimicrobial peptide, reference compound]",mitochondrial targeting upon sole addition of cTP-N (^cP),[1],enabled mitochondrial targeting
same,chloroplast targeting upon addition of cTP-C (P^c),,enabled chloroplast targeting
same,targeting when combining cTP-N with mTP-C (^cP^m),Figure 2,dual targeting
"KYYGNGVHCTKSGCSVNWGEAFSAGVHRLANGGNGFW [LCA, leucocin A, HA-RAMP antimicrobial peptide, reference compound]",chloroplast targeting upon addition of cTP-C (P^c),,enabled chloroplast targeting
same,chloroplast targeting upon addition of cTP-C (P^c),listed as LCAK,Gain of partial chloroplast targeting
same,targeting when combining cTP-N with mTP-C (^cP^m),Figure 2,chloroplast targeting
"KYYGNGVSCNKKGCSVDWGKAIGIIGNNAAANLTTGGKAGWKG [EHF, enterocin HF, HA-RAMP antimicrobial peptide, reference compound]",chloroplast targeting upon addition of cTP-C (P^c),,enabled chloroplast targeting
same,targeting when combining cTP-N with mTP-C (^cP^m),Figure 2,chloroplast targeting
MALWKTMLKKLGTMALHAGKAAFGAAADTISQ [DDM.K],Localisation,[2],Neither
MALWKTMLKKLGTMALHAGKAAFGAAADTISQLTQTAESFRGVSSQFFDAPNGPSVKQVLIEDEW [DDM.K.m],Localisation,[2],Neither
MALWKTMLKKLGTMALHAGKAAFGAAADTISQSVRRAQLQVVASSRKQMGRWRSIDAGVDASDDQ [DDM.K.c],Localisation,[2],Neither
MALWMTLLKKVLKAAAKAALNAVLVGANA [DS4.K],Localisation,[3],Neither
MALWMTLLKKVLKAAAKAALNAVLVGANALTQTAESFRGVSSQFFDAPNGPSVKQVLIEDEW [DS4.K.m],Localisation,[3],Neither
MALWMTLLKKVLKAAAKAALNAVLVGANASVRRAQLQVVASSRKQMGRWRSIDAGVDASDDQ [DS4.K.c],Localisation,[3],Neither
MALWMTLLRRVLRAAARAALNAVLVGANA [DS4.R],Localisation,[3],Neither
MALWMTLLRRVLRAAARAALNAVLVGANALTQTAESFRGVSSQFFDAPNGPSVKQVLIEDEW [DS4.R.m],Localisation,[2],Neither
MALWMTLLRRVLRAAARAALNAVLVGANASVRRAQLQVVASSRKQMGRWRSIDAGVDASDDQ [DS4.R.c],Localisation,[3],Neither
MALWRTMLRRLGTMALHAGRAAFGAAADTISQ [DDM.R],Localisation,[4],Neither
MALWRTMLRRLGTMALHAGRAAFGAAADTISQLTQTAESFRGVSSQFFDAPNGPSVKQVLIEDEW [DDM.R.m],Localisation,[4],Neither
MALWRTMLRRLGTMALHAGRAAFGAAADTISQSVRRAQLQVVASSRKQMGRWRSIDAGVDASDDQ [DDM.R.c],Localisation,[4],Neither
MDEVNNDNCRIKFKGDISSESDKMNINY [RP2.K],Localisation,[2],Neither
MDEVNNDNCRIKFKGDISSESDKMNINYLTQTAESFRGVSSQFFDAPNGPSVKQVLIEDEW [RP2.K.m],Localisation,[2],Neither
MDEVNNDNCRIKFKGDISSESDKMNINYSVRRAQLQVVASSRKQMGRWRSIDAGVDASDDQ [RP2.K.c],Localisation,[2],Neither
MDEVNNDNCRIRFRGDISSESDRMNINY [RP2.R],Localisation,[4],Neither
MDEVNNDNCRIRFRGDISSESDRMNINYLTQTAESFRGVSSQFFDAPNGPSVKQVLIEDEW [RP2.R.m],Localisation,[4],Neither
MDEVNNDNCRIRFRGDISSESDRMNINYSVRRAQLQVVASSRKQMGRWRSIDAGVDASDDQ [RP2.R.c],Localisation,[4],Neither
MFLPLLAGLAANFLPKIFCKITRKC [B1E.K],Localisation,[3],Neither
MFLPLLAGLAANFLPKIFCKITRKCLTQTAESFRGVSSQFFDAPNGPSVKQVLIEDEW [B1E.K.m],Localisation,[3],Neither
